Source: publication PMC9442914, “Antidiabetic potential of Lysiphyllum strychnifolium (Craib) A. Schmitz compounds in human intestinal epithelial Caco-2 cells and molecular docking-based approaches” (BMC Complementary Medicine and Therapies, 2022)
Entries after “also recorded” stand apart in the source; their conditions may differ.

Columns and labels:
GLUT2 mRNA = assay: Transcription of GLUT2 mRNA in Caco-2 cells (RT-PCR); assay type: cell-based, human; conditions: 62.50 µg/ml, normalized to GAPDH
Procedure: (§1) RNA was extracted from Caco-2 cells using an RNA extraction kit (QIAGEN, Hilden, Germany). Reverse transcription was performed with SuperScript III Reverse Transcriptionase (Thermo Fisher Scientific, Waltham, USA). cDNA was synthesized from 2 µg of total RNA according to the manufacturer’s instructions. Then, the cDNA was maintained at − 20°C for further analysis by real-time PCR. The specific primers used in the experiment were as follows: SGLT1, 5’-[…]-3’ (forward) and 3’-[…]-5’ (reverse); GLUT2, 5’-[…]-3’ (forward) and 3’-[…]-5’ (reverse); GLUT5, 5’- […]-3’ (forward) and 3’-[…]-5’ (reverse). All conditions were performed in triplicate with 3 independent experiments. The real-time qPCR mixture (10 µL) comprised 1 µL of DNA polymerase, template DNA (25 ng), 1 µL of DEPC, and 1.2 µL of forward and reverse primers. Thermal cycling (Applied Biosystems, Waltham, USA) consisted of (denaturation 95 °C for 20 s, annealing 63.3 °C for 30 s, and extension 72 °C for 20 s, 40 cycles. The gene expression data were normalized to the internal control gene GAPDH and then compared using comparative delta-delta Ct.

GLUT5 mRNA = assay: Transcription of GLUT5 mRNA in Caco-2 cells (RT-PCR); assay type: cell-based, human; conditions: 62.50 µg/ml, normalized to GAPDH
Procedure: as §1

SGLT1 mRNA = assay: Transcription of SGLT1 mRNA in Caco-2 cells (RT-PCR); assay type: cell-based, human; conditions: 62.50 µg/ml, normalized to GAPDH
Procedure: as §1

ABTS scavenging assay = conditions: mean ± SEM
[1] = DPPH radical scavenging assay; conditions: mean ± SEM
Procedure: The method by Kumar, Sanjiv et al. was adopted for DPPH (2,2-diphenyl-1-picrylhydrazyl) assays with slight modifications. Briefly, DPPH solution (100 µl) and extract solution (100 µl) were added to a 96-well microplate and thoroughly mixed. The absorbance was measured at 517 nm after a 30-minute incubation time at room temperature.

Caco-2 cells = assay: Cell viability assay (MTT) in Caco-2 cells; assay type: cell-based, human; conditions: concentrations from 0 to 62.50 ug/ml, 24 h
Procedure: (§2) Caco-2 cells were obtained from the American Type Culture Collection (ATCC). The cells were cultured in DMEM with 10% FBS and 1% penicillin–streptomycin solution and were maintained at 37 °C in a humidified environment of 95% air and 5% CO2. For the viability test, the Caco-2 cells were seeded on 96-well plates, and 24-well Transwell plates were used to determine α-glucosidase inhibition. […] Fresh media was supplied to the cells every two days during this period.
Caco-2 cells were obtained from the American Type Culture Collection (ATCC). The cells were grown in complete medium (DMEM with 10% FBS, 100 units/mL penicillin, and 100 µg/mL streptomycin) and plated at a density of 10,000 cells per well in 96-well plates for 21 days. Then, the cells were treated with extracts at concentrations ranging from […] for another 24 h. DMSO (0.1%) was added to the control group. The MTT test was used to measure cell viability after treatment. In a 96-well plate, 100 µl of MTT at a concentration of 0.5 mg/ml was applied to each well. The MTT solution was withdrawn after 3 h of incubation at 37 °C, and formazan crystals were dissolved in 100 µl of DMSO. At 570 nm, the purple color that was generated was detected spectrophotometrically (with a reference OD of 690). Prism 6 software was used to calculate cell viability. The appropriate concentration of extracts was chosen for future experiments.

[2] = tested on: α-glucosidase in Caco-2 cells; assay: Inhibition of α-glucosidase activity in Caco-2 cell monolayer; assay type: cell-based, human; conditions: apical side of Caco-2 monolayer; 31.25 and 62.50 ug/ml tested, concentration of the values not given
Procedure: as §2
Caco-2 cells were seeded in 24-transwell plates at a density of 10,000 cells per well for 21 days. The cells were washed in 1X PBS after the culture media was removed. […] At the same time, the lower chamber was filled with glucose-free medium (500 µl). Then, 50 µl of culture media from the upper chamber was taken and measured by the glucose oxidase method.

Structure (SMILES)	Transcription of GLUT2 gene (mRNA) (GLUT2 mRNA)	Transcription of GLUT5 gene (mRNA) (GLUT5 mRNA)	Transcription of SGLT1 gene (mRNA) (SGLT1 mRNA)	EC50 (ABTS scavenging assay) [µM]	EC50 [1] [µM]	Cytotoxicity to Caco-2 cells (MTT) (Caco-2 cells)	α-glucosidase activity compared with untreated cells [2] [%]
C[C@H]1O[C@H](O[C@H]2[C@H](O)[C@@H](O)[C@@H](O[C@H]3[C@H](O)[C@@H](O)C(O)O[C@@H]3CO)O[C@@H]2CO)[C@H](O)[C@@H](O)[C@@H]1N[C@H]1C=C(CO)[C@@H](O)[C@H](O)[C@H]1O (stereo partly drawn) [Acarbose, acarbose, reference compound]	downregulated	downregulated	downregulated	–	–	–	–
O=C1O[C@H]([C@@H](O)CO)C(O)=C1O [Ascorbic acid, ascorbic acid, reference compound]	–	–	–	25.1 ± 0.19	30.38 ± 0.18	–	–
C[C@@H]1O[C@@H](Oc2coc3cc(O)cc(O)c3c2=O)[C@H](O)[C@H](O)[C@H]1O [Compound 1, 3,5,7-trihydroxychromone-3-O-α-L-rhamnopyranoside]	downregulated	downregulated	downregulated	10.3 ± 0.2	5.22 ± 0.2	without cytotoxicity; also recorded: not cytotoxic	59.75
